The text below walks through data of patent publication US7078389B2, “Chemically modified oligonucleotide for site-directed mutagenesis” (priority 1993, dated 2006).

“Also recorded” adds a separate entry of the source. {Pso} = 4'-hydroxymethyl-4,5',8-trimethylpsoralen through a two-carbon linker arm and a phosphodiester

One data set deals with supF gene. The note with it: free psoralen plus UVA, published data, FIG. 2B/5B; cited from earlier work.
The subject of data set [1] is supF gene (250 bp fragment). Put plainly: Triplex binding assay (32P-labelled oligonucleotide, gel electrophoresis). Also on record: species or system E. coli. The settings on record: for Binding of oligonucleotide to supF gene fragment: 32P-labelled oligomer 6×10^−8 M, oligomer:supF about 1:1, 2 hours at 37 degrees; for Competition with 32P-labelled AG10 for binding to supF: unlabelled competitor at 200-fold molar excess. The protocol: The target gene chosen was supF, an E. coli amber suppressor tyrosine tRNA gene, contained within the genome of a lambda phage vector, lambda supF as shown in FIG. 1. A 10 base homopurine oligonucleotide AG10 (5′AGGAAGGGGG 3′) capable of forming a triple strand at positions 167–176 in the supF gene was identified.
The 250 bp supF target was generated from lambda supF using the polymerase chain reaction. Each oligo (200 ng) was labelled with 50 μCi of gamma-^32P-ATP (Amersham, Arlington Heights, Ill.) and separated from unreacted gamma^32P-ATP by passage through a G-25 spin column (Boehringer Mannheim, Indianapolis, Ind.). The concentration of oligomer in the reaction mixture was 6×10^−8 M and the oligomer:supF ratio was approximately 1:1 on a molar basis. When present, competitors were used at 200-fold molar excess.
Following the 2 hour binding step, reaction mixtures were run on a 4% acrylamide gel in 90 mM Tris base, 90 mM boric acid, 20 mM MgCl2 with a 20% acrylamide plug. A 100 bp ladder (BRL, Bethesda, Md.) was end-labelled as described for oligomers and run on gels as a size reference. Following a 4 hour run at constant voltage (150 V), the gel was visualized by autoradiography for 1 hour using Kodak X-AR film. […] To assay for triplex formation, ^32P-labeled oligonucleotides, either AG10 (^5 AGGAAGGGGG^3) (SEQ ID NO:2) or the reverse sequence oligomer (GA10), were incubated with a […] double-stranded fragment containing the entire supF gene. The products of the binding reactions were visualized by polyacrylamide gel electrophoresis and autoradiography.
When no supF target DNA was present, there was no band observed at this position. […] In lanes 5–8, no binding of the ^32P-labelled GA10 to supF was detected: GA10 alone without supF; GA10 plus supF; GA10 plus supF with excess unlabelled GA10; GA10 plus supF with excess AG10.

On to `COc1c2occc2cc2ccc(=O)oc12` [8-methoxypsoralen], for which the “Occurrence of supF mutations at base pair 167” value in the data set on supF gene was “none of them occur at position 167; also recorded: none were found to occur at base pair 167”. Take “5′ GGGGGAAGGA 3′ (DNA, 5' {Pso}, backbone not given here; triplex-forming reverse control oligonucleotide) [GA10]”: in data set [1], the “Binding of oligonucleotide to supF gene fragment” value is “no binding; also recorded: failed to bind to supF; also recorded: did not bind” and the “Competition with 32P-labelled AG10 for binding to supF” value is reported as “did not compete with AG10; also recorded: failed to bind to supF or to compete with AG10 for binding”.

As for “5′AGGAAGGGGG 3′ (DNA, 5' {Pso}, backbone not given here; triplex-forming oligonucleotide) [AG10, 10 base homopurine oligonucleotide capable of forming a triple strand at positions 167–176 in the supF gene]”, in data set [1], the “Binding of oligonucleotide to supF gene fragment” value is given as “Binding of labelled AG10 to the added supF DNA was demonstrated; also recorded: bound specifically to the supF gene” and the “Competition with 32P-labelled AG10 for binding to supF” value is given as “competed with the ^32P-labelled AG10”.
